SMILES strings stand for the structures.

The record followed here is ChEMBL document CHEMBL6127060, “Bioisosteric replacement of the carboxylic acid group in Hepatitis-C virus NS5B thumb site II inhibitors: phenylalanine derivatives” (Eur J Med Chem, 2024).

In one data set the target is Hepatitis C virus NS5B RNA-dependent RNA polymerase (Hepatitis C virus, UniProt Q8JXU8). Description: Inhibition of Hepatitis C virus NS5B polymerase. Further details: species or system Hepacivirus hominis.
Sequence of Hepatitis C virus NS5B RNA-dependent RNA polymerase (Q8JXU8 whole entry): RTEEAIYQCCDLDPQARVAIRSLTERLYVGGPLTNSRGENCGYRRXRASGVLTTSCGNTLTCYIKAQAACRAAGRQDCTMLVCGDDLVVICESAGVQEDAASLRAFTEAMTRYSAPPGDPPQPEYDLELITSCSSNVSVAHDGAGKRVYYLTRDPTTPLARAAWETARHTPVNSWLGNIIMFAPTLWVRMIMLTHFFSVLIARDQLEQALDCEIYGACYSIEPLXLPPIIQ
Settings: not given
As to `O=C(O)[C@H](Cc1ccccc1)N(Cc1cccc([N+](=O)[O-])c1)C(=O)c1ccc(Cl)cc1Cl`, it took 0.7 µM to reach half-maximal inhibition (IC50).

As to `CC1CCC(C(=O)N(C)c2ccc(Oc3ccccc3C(F)(F)F)cc2C(=O)O)CC1` (stereo not given), it took 0.2 µM to reach half-maximal inhibition (IC50).

Take `N#Cc1cccc(CN(C(=O)c2ccc(Cl)cc2Cl)[C@@H](Cc2ccccc2)C(=O)O)c1`: half-maximal inhibition (IC50) was put at 0.8 µM.

With `O=C(O)[C@H](Cc1ccccc1)N(Cc1cccc(C(F)(F)F)c1)C(=O)c1ccc(Cl)cc1Cl`, half-maximal inhibition (IC50) required 1.7 µM.

Another data set concerns Hepatitis C virus. In words: Antiviral activity against Hepatitis C virus. The data set is classed as functional, organism-based, Hepacivirus hominis.
Settings: not given
For the molecule `CC1CCC(C(=O)N(C)c2ccc(Oc3ccccc3C(F)(F)F)cc2C(=O)O)CC1` (stereo not given), the EC50 – broadly, the midpoint of the concentration-response curve – was 1.1 µM.

The test system of the next data set is Hepatitis C virus. In words: Antiviral activity against Hepatitis C virus genotype 1b infected in human Huh-7 cells assessed as inhibition of viral growth incubated for 3 days. The data set is classed as functional, organism-based, Hepacivirus hominis. Particulars: Huh-7, 72 h.
Turning to `N#CC(Cc1ccccc1)N(Cc1cccc(C(F)(F)F)c1)C(=O)c1ccc(Cl)cc1Cl` (stereo not given), the EC50 is more than 50 µM.

In the case of `N/C(=N\O)C(Cc1ccccc1)N(Cc1cccc(Br)c1)C(=O)c1ccc(Cl)cc1Cl` (stereo not given), the EC50 was 6.36 µM.

In the case of `O=C(c1ccc(Cl)cc1Cl)N(Cc1cccc(Br)c1)C(Cc1ccccc1)c1noc(=O)[nH]1` (stereo not given), the EC50 is more than 50 µM.

Turning to `N#CC(Cc1ccccc1)N(Cc1cccc(Br)c1)C(=O)c1ccc(Cl)cc1Cl` (stereo not given), the concentration giving a half-maximal response (EC50) is more than 50 µM.

Consider `N/C(=N\O)C(Cc1ccccc1)N(Cc1cccc([N+](=O)[O-])c1)C(=O)c1ccc(Cl)cc1Cl` (stereo not given), for which the EC50 came to 11.3 µM.

With `O=C(c1ccc(Cl)cc1Cl)N(Cc1cccc(F)c1)C(Cc1ccccc1)c1noc(=O)[nH]1` (stereo not given), the EC50 was more than 50 µM.

As to `CC(C)(C)C(=O)OCn1c(C(Cc2ccccc2)N(Cc2cccc([N+](=O)[O-])c2)C(=O)c2ccc(Cl)cc2Cl)noc1=S` (stereo not given), the EC50 is more than 50 µM.

For the molecule `N#CC(Cc1ccccc1)N(Cc1cccc(F)c1)C(=O)c1ccc(Cl)cc1Cl` (stereo not given), the EC50 came out at 3.72 µM.

As for `O=C(c1ccc(Cl)cc1Cl)N(Cc1cccc([N+](=O)[O-])c1)C(Cc1ccccc1)c1noc(=O)[nH]1` (stereo not given), the half-maximal effective concentration (EC50) was more than 50 µM.

For `Cn1c(C(Cc2ccccc2)N(Cc2cccc(C(F)(F)F)c2)C(=O)c2ccc(Cl)cc2Cl)noc1=S` (stereo not given), the EC50 was found to be 8.09 µM.

Regarding `O=C(c1ccc(Cl)cc1Cl)N(Cc1cccc(C(F)(F)F)c1)C(Cc1ccccc1)c1noc(=O)[nH]1` (stereo not given), the EC50 was more than 50 µM.

Turning to `O=C(c1ccc(Cl)cc1Cl)N(Cc1cccc(Br)c1)C(Cc1ccccc1)c1noc(=S)[nH]1` (stereo not given), the EC50 is more than 50 µM.

Consider `O=C(c1ccc(Cl)cc1Cl)N(Cc1cccc(C(F)(F)F)c1)C(Cc1ccccc1)c1noc(=S)[nH]1` (stereo not given), for which the half-maximal effective concentration (EC50) is more than 50 µM.

Consider `N/C(=N\O)C(Cc1ccccc1)N(Cc1cccc(C(F)(F)F)c1)C(=O)c1ccc(Cl)cc1Cl` (stereo not given), for which the EC50 came to 3.91 µM.

Consider `CC1=CC[C@H](C(=O)N(c2cc(C#CC(C)(C)C)sc2C(=O)O)[C@H]2CC[C@](O)(CO[C@H]3CCOC3)CC2)CC1` [RADALBUVIR], for which the EC50 was 0.052 µM.

On to `CC(C)(C)C(=O)OCn1c(C(Cc2ccccc2)N(Cc2cccc(C(F)(F)F)c2)C(=O)c2ccc(Cl)cc2Cl)noc1=S` (stereo not given), for which the EC50 is more than 50 µM.

Consider `O=C(c1ccc(Cl)cc1Cl)N(Cc1cccc(F)c1)C(Cc1ccccc1)c1noc(=S)[nH]1` (stereo not given), for which the EC50 is more than 50 µM.

For the molecule `N#CC(Cc1ccccc1)N(Cc1cccc([N+](=O)[O-])c1)C(=O)c1ccc(Cl)cc1Cl` (stereo not given), the EC50 worked out at 5.19 µM.

As to `O=C(c1ccc(Cl)cc1Cl)N(Cc1cccc([N+](=O)[O-])c1)C(Cc1ccccc1)c1noc(=S)[nH]1` (stereo not given), the EC50 is more than 50 µM.

Take `N/C(=N\O)C(Cc1ccccc1)N(Cc1cccc(F)c1)C(=O)c1ccc(Cl)cc1Cl` (stereo not given): the EC50 was more than 50 µM.

Test system in another data set: not listed separately
Description: Cytotoxicity against human Huh-7 cells assessed as cell viability. It is filed as toxicity, cell-based.
Settings: not given
As for `N#CC(Cc1ccccc1)N(Cc1cccc(C(F)(F)F)c1)C(=O)c1ccc(Cl)cc1Cl` (stereo not given), the CC50 (usually the concentration that lowers cell viability or growth by half) was more than 50 µM.

As to `N/C(=N\O)C(Cc1ccccc1)N(Cc1cccc(Br)c1)C(=O)c1ccc(Cl)cc1Cl` (stereo not given), the CC50 is 16.1 µM.

Consider `O=C(c1ccc(Cl)cc1Cl)N(Cc1cccc(Br)c1)C(Cc1ccccc1)c1noc(=O)[nH]1` (stereo not given), for which the CC50 was more than 50 µM.

Regarding `N#CC(Cc1ccccc1)N(Cc1cccc(Br)c1)C(=O)c1ccc(Cl)cc1Cl` (stereo not given), the CC50 is more than 50 µM.

Consider `N/C(=N\O)C(Cc1ccccc1)N(Cc1cccc([N+](=O)[O-])c1)C(=O)c1ccc(Cl)cc1Cl` (stereo not given), for which the CC50 was determined as 18.2 µM.

As for `O=C(c1ccc(Cl)cc1Cl)N(Cc1cccc(F)c1)C(Cc1ccccc1)c1noc(=O)[nH]1` (stereo not given), the CC50 was more than 50 µM.

For `CC(C)(C)C(=O)OCn1c(C(Cc2ccccc2)N(Cc2cccc([N+](=O)[O-])c2)C(=O)c2ccc(Cl)cc2Cl)noc1=S` (stereo not given), the CC50 is more than 50 µM.

For `N#CC(Cc1ccccc1)N(Cc1cccc(F)c1)C(=O)c1ccc(Cl)cc1Cl` (stereo not given), the CC50 was more than 50 µM.

With `O=C(c1ccc(Cl)cc1Cl)N(Cc1cccc([N+](=O)[O-])c1)C(Cc1ccccc1)c1noc(=O)[nH]1` (stereo not given), the CC50 was more than 50 µM.

As to `Cn1c(C(Cc2ccccc2)N(Cc2cccc(C(F)(F)F)c2)C(=O)c2ccc(Cl)cc2Cl)noc1=S` (stereo not given), the CC50 is more than 50 µM.

In the case of `O=C(c1ccc(Cl)cc1Cl)N(Cc1cccc(C(F)(F)F)c1)C(Cc1ccccc1)c1noc(=O)[nH]1` (stereo not given), the CC50 was 49.2 µM.

In the case of `O=C(c1ccc(Cl)cc1Cl)N(Cc1cccc(Br)c1)C(Cc1ccccc1)c1noc(=S)[nH]1` (stereo not given), the CC50 is more than 50 µM.

Turning to `O=C(c1ccc(Cl)cc1Cl)N(Cc1cccc(C(F)(F)F)c1)C(Cc1ccccc1)c1noc(=S)[nH]1` (stereo not given), the CC50 was more than 50 µM.

With `N/C(=N\O)C(Cc1ccccc1)N(Cc1cccc(C(F)(F)F)c1)C(=O)c1ccc(Cl)cc1Cl` (stereo not given), the CC50 was 11 µM.

Take `CC1=CC[C@H](C(=O)N(c2cc(C#CC(C)(C)C)sc2C(=O)O)[C@H]2CC[C@](O)(CO[C@H]3CCOC3)CC2)CC1` [RADALBUVIR]: the CC50 was more than 50 µM.

As to `CC(C)(C)C(=O)OCn1c(C(Cc2ccccc2)N(Cc2cccc(C(F)(F)F)c2)C(=O)c2ccc(Cl)cc2Cl)noc1=S` (stereo not given), the CC50 is more than 50 µM.

Consider `O=C(c1ccc(Cl)cc1Cl)N(Cc1cccc(F)c1)C(Cc1ccccc1)c1noc(=S)[nH]1` (stereo not given), for which the half-maximal cytotoxic concentration (CC50) was more than 50 µM.

In the case of `N#CC(Cc1ccccc1)N(Cc1cccc([N+](=O)[O-])c1)C(=O)c1ccc(Cl)cc1Cl` (stereo not given), the CC50 is more than 50 µM.

`O=C(c1ccc(Cl)cc1Cl)N(Cc1cccc([N+](=O)[O-])c1)C(Cc1ccccc1)c1noc(=S)[nH]1` (stereo not given): the CC50 was more than 50 µM.

For `N/C(=N\O)C(Cc1ccccc1)N(Cc1cccc(F)c1)C(=O)c1ccc(Cl)cc1Cl` (stereo not given), the CC50 is more than 50 µM.
